Measurements as given in patent US11680054B2, “Bronchodilating hetero-linked amides” (Arcede Pharma AB, priority 2018, dated 2023).
Values after ≈ are worked out from the molar mass of the structure shown.

Tests used:
[1] = test system: human bronchiols; assay: Leukotriene D4 induced contraction of human bronchus preparations, in vitro model; details: pre-treatment with compound at 10 μM; Leukotriene D4 (10 nM) induced contraction of human bronchiols
Method: The usefulness of the compounds, as defined in the preceding embodiments, in treating, pretreating, revoking, mitigating, alleviating and/or preventing a condition of the respiratory apparatus characterized by bronchoconstriction, were evaluated in a complex and relevant in vitro model. The in vitro model was in accordance with the in vitro model disclosed in US 2006-0040254 A1 and Skogvall, S., Berglund, M., Dalence-Guzmán, M. F., Svensson, K., Jönsson, P., Persson, C. G. A and Sterner, O., Pulmonary Pharmacology and Therapeutics, vol 20:3, 2007, p. 273-280. All references disclosed herein are hereby incorporated in their entirety by reference.
In short, lung tissue was obtained from patients undergoing lobectomia or pulmectomia due to lung carcinoma. From the bronchus of this tissue were rectangular oblong preparations obtained. The contraction induced by inflammatory mediators, such as Leukotriene D4, histamine, prostaglandin D2 or acetylcholine, in the presence and absence of the compound to be evaluated, were compared.
The usefulness of the compounds, as defined in the embodiments herein, in treating, revoking, mitigating, alleviating and/or preventing a condition of the respiratory apparatus characterized by bronchoconstriction, were evaluated in a complex and relevant in vitro model, which is described in US 2006-0040254 A1 and Skogvall, S., Berglund, M., Dalence-Guzmán, M. F., Svensson, K., Jönsson, P., Persson, C. G. A and Sterner, O., Pulmonary Pharmacology and Therapeutics, vol 20:3, 2007, p. 273-280. All references disclosed herein are hereby incorporated in their entirety by reference.
The remaining contraction, after pre-treatment with various compound examples at a concentration of 10 μM, of human bronchiols after Leukotriene D4 (10 nM) induced contraction according to the in vitro method described herein above are tabulated below.

[2] = test system: human peripheral blood mononuclear cell (PBMC); assay: Human PBMC in vitro model, LPS induced MCP-1 and LTB-4 levels; format: cell-based; details: for LTB-4 reduction (%) / MCP-1 reduction (%): LPS 0.1 μg/ml, 24 h
Method: Cryopreserved PBMC's (SeraCare, #72001) are thawed, washed with culture media (RPMI-1640 from Invitrogen, #61870-036+10% heat inactivated fetal bovine serum from Invitrogen, #10082-147+100 U/ml penicillin+100 μg/ml streptomycin) and tested for viability using Trypan blue (PBMC viability=96%). Cells are then resuspended to 1×10^6 cells/ml in culture media and 0.5 ml plated into 24 well culture plates (5×10^5 cells/well) before incubation for 30 minutes at 37° C. with 5% C02 prior to addition of a compound to be assessed (10 μM) or dexamethasone (1 μM). One hour thereafter, LPS (0.1 μg/ml, Salmonella abortus equi, Sigma, #L1887) are added and the cells are incubated for another 24 h before collection of the cell culture supernatants, which are assayed for the presence of MCP-1 and LTB4.
MCP-1 levels are quantified employing a Luminex-based assay according the manufacturer's instructions. Data are collected using a Luminex 100 (Luminex Corporation, Austin, Tex.). Standard curves are generated using a 5-parameter logistic curve fitting equation weighted by 1/y (StarStation V 2.0; Applied Cytometry Systems, Sacramento, Calif.). Each sample reading are interpolated from the appropriate standard curve. Calculated concentrations are multiplied by the appropriate dilution factor when necessary.
LTB4 levels are quantified by ELISA following the manufacturer's instructions. Absorbance readings are detected using a ThermoMax microplate reader (Molecular Devices). Standard curves are generated using a 4-parameter logistic curve fitting equation (SoftMax Pro 4.7.1; Molecular Devices). Each sample reading are interpolated from the appropriate standard curve. Duplicate interpolated sample values are averaged and standard deviations are calculated. Calculated concentrations are multiplied by the appropriate dilution factor.
The reults in lowering MCP-1 and LTB-4 levels compared to vehicle (negative control) and 1 μM dexamethasone (positive control) are given below.

[3] = Solubility in phosphate buffer (pH 7.4); format: physicochemical; details: aqueous buffer, thermodynamic from solid; phosphate buffer pH 7.4, agitated 20 hours at 37° C.
Method: The solubilities of 1-(5,8-Dichloro-6,7-dihydroxy-3,4-dihydroisoquinolin-2(1H)-yl)-2-(6-(trifluoromethyl)pyridin-3-ylthio)ethenone (example 1) and the known compound 1-(5,8-Dichloro-6,7-dihydroxy-3,4-dihydroisoquinolin-2(1H)-yl)-2-(6-(trifluoromethyl)pyridine-3-yloxy)ethanone in phosphate buffer (pH 7.4) were determined.
Briefly, 1 mg of the study compounds were weighted into glass vials (two replicates). 2 ml of pH 7.4 phosphate buffer was added into the vials and vials were then agitated (1300 rpm) 20 hours at 37° C. Samples were filtrated using 0.45 μm PVDA syringe filters before analysis. 10 μg/ml and 500 μg/ml standard solutions in acetonitrile:ultra-pure water were prepared using 10 mM DMSO-stock solution. Samples and standards were analyzed from glass vials. The samples were analyzed using UPLC/PDA immediately after preparation. A Waters Acquity ultra high-performance liquid chromatographic (UPLC) system with autosampler, vacuum degasser, photo-diode-array detector (Acquity PDA) and column oven was used.

[4] = test system: male Sprague Dawley rats; assay: Carbamylcholine-induced bronchospasm in anaesthetised rats (Konzett-Rossler method); format: in vivo; details: rat; for Bronchodilatating effect on carbamylcholine chloride induced bronchoconstriction: intra-tracheal, administered at 6 mM, smaller increase in pulmonary resistance compared to vehicle; for Total pulmonary resistance increase from baseline post carbamylcholine chloride challenge, Average: single intra-tracheal nebulization of 100 μl at 6 mM, 30 min before carbamylcholine chloride 275 μg/kg iv
Method: The bronchocondilatator effect of example 1 and (2E)-1-(5,8-dichloro-3,4-dihydro-6,7-dihydroxy-2(1H)-isoquinolinyl)-3-[6-(trifluoromethyl)-3-pyridinyl]-2-propen-1-one was evaluated using the Konzett-Rossler method (cf. Konzett H, Rössler R (1940) Versuchsanordung zu Untersuchungen an der Bronchialmuskulatur. Naunyn-Schmiedeberg's Arch Exp Path Pharmakol 192:71-74) in the anaesthetised rat following single intra-tracheal administration.
The study involved male Sprague Dawley rats, weighing between 291.1 g and 347.7 g on the day of the test.
Animals were put on to a water-only fast the day prior to the test. On the day of the test, animals were anaesthetised using sodium pentobarbital at a dose of 60 mg/kg by intraperitoneal route in a volume of 1 mL/kg, then at 2 mg/mL by the intravenous route at a rate of 10 mL/kg/hour throughout the test. The trachea was quickly cannulated to enable artificial respiration. The animals were ventilated with an air flow of approximately 1 mL per 100 g at a rate of 54 cycles/minute. Total pulmonary resistance was measured continuously using a pressure transducer, fitted to a side branch of the tracheal cannula. Arterial blood pressure and heart rate were obtained by placing the telemetric pressure sensor of telemetric transmitter HD-S11 in the carotid artery. A jugular vein was cannulated for the intravenous administration of carbamylcholine chloride. The temperature of the animal was kept between 36.0° C. and 39.3° C. using an electric blanket. At the end of the surgical phase, animals were pre-medicated with a solution of pancuronium bromide at 0.2 mg/mL by the intravenous route at a rate of 10 mL/kg/hour throughout the test to avoid spontaneous respiration. Ventilatory flow was adjusted in such way as to obtain a baseline stabilisation of the pulmonary pressure resistance between 6.5 to 10.5 mmHg (i.e. approximately between 10 to 15% of maximum pulmonary resistance). About 15 minutes after the end of the surgical phase and stabilisation of the pulmonary pressure signal, the animals were dosed with: • 1. Example 1; • 2. (2E)-1-(5,8-dichloro-3,4-dihydro-6,7-dihydroxy-2(1H)-isoquinolinyl)-3-[6-(trifluoromethyl)-3-pyridinyl]-2-propen-1-one; or • 3. Their vehicle
by intra-tracheal nebulization in a volume of 100 μl using a Microsprayer aerosolizer (Penncentury).
Thirty minutes later, carbamylcholine chloride at 275 μg/kg was administered using an infusion pump in a volume of 3.33 mL/kg over a 5-minute period. Total pulmonary resistance, mean, systolic and diastolic arterial blood pressure and heart rate were continuously recorded over the test.
Example 1 was formulated by dissolving 5.5 mg in 2015 μl vehicle (200 mM (2-hydroxypropyl)-β-cyclodextrin, 49 mM L-lysine, 6.2 mM L-ascorbic acid in MilliQ water). […]

[5] = dexamethasone 1 μM (positive control)
[6] = compound 10 μM, compared to vehicle

## Cc1nc(C(F)(F)F)ccc1SCC(=O)N1CCc2c(Cl)c(O)c(O)c(Cl)c2C1 [Example 2, 1-(5,8-Dichloro-6,7-dihydroxy-3,4-dihydroisoquinolin-2(1H)-yl)-2-(2-methyl-6-(trifluoromethyl)pyridin-3-ylthio)ethanone]
[1]
  Remaining contraction (%): 14%

## C[C@@H]1C[C@H]2[C@@H]3CCC4=CC(=O)C=C[C@]4(C)[C@@]3(F)[C@@H](O)C[C@]2(C)[C@@]1(O)C(=O)CO [Dexamethasone, dexamethasone, reference compound]
[2]; [5]
  LTB-4 reduction (%): 23.4%
  MCP-1 reduction (%): 15.5%

## O=C(CSc1ccc(C(F)(F)F)nc1)N1CCc2c(Cl)c(O)c(O)c(Cl)c2C1 [Example 1, 1-(5,8-Dichloro-6,7-dihydroxy-3,4-dihydroisoquinolin-2(1H)-yl)-2-(6-(trifluoromethyl)pyridin-3-ylthio)ethanone]
[3]
  solubility at 20 h: 16.6 µg/mL (≈ 36.6 µM)
[4]
  Bronchodilatating effect on carbamylcholine chloride induced bronchoconstriction: had a bronchodilatating effect
  Total pulmonary resistance increase from baseline post carbamylcholine chloride challenge, Average: 2.33 mmHg
[1]
  Remaining contraction (%): 7%
[2]; 10 μM, LPS stimulated PBMC
  Reduction of inflammatory markers (MCP-1 and LTB-4): significant reduction
[2]; [6]
  LTB-4 reduction (%): 20.7%
  MCP-1 reduction (%): 70.8%

## O=C(C1CCCN(c2ccc(F)cn2)C1)N1CCc2c(Cl)c(O)c(O)c(Cl)c2C1 (stereo not drawn) [Example 4, (5,8-Dichloro-6,7-dihydroxy-3,4-dihydroisoquinolin-2(1H)-yl)(1-(5-fluoropyridin-2-yl)piperidin-3-yl)methanone]
[1]
  Remaining contraction (%): 51%

## Cc1cc(C(F)(F)F)cc(SCC(=O)N2CCc3c(Cl)c(O)c(O)c(Cl)c3C2)n1 [Example 3, 1-(5,8-Dichloro-6,7-dihydroxy-3,4-dihydroisoquinolin-2(1H)-yl)-2-(6-methyl-4-(trifluoromethyl)pyridin-2-ylthio)ethanone]
[1]
  Remaining contraction (%): 16%

## O=C(/C=C/c1ccc(C(F)(F)F)nc1)N1CCc2c(Cl)c(O)c(O)c(Cl)c2C1 [(2E)-1-(5,8-dichloro-3,4-dihydro-6,7-dihydroxy-2(1H)-isoquinolinyl)-3-[6-(trifluoromethyl)-3-pyridinyl]-2-propen-1-one, reference compound]
[4]
  Bronchodilatating effect on carbamylcholine chloride induced bronchoconstriction: had a bronchodilatating effect
  Total pulmonary resistance increase from baseline post carbamylcholine chloride challenge, Average: 2.86 mmHg

## O=C(COc1ccc(C(F)(F)F)nc1)N1CCc2c(Cl)c(O)c(O)c(Cl)c2C1 [1-(5,8-Dichloro-6,7-dihydroxy-3,4-dihydroisoquinolin-2(1H)-yl)-2-(6-(trifluoromethyl)pyridine-3-yloxy)ethanone, reference compound]
[3]
  solubility at 20 h: 76.7 µg/mL (≈ 175 µM)
